Assay [1] deals with T1, Arabidopsis TGD2, DsRed-TGD2C WT (DR-WT) fusion protein, residues 119-381, SEQ ID NO:107 (Arabidopsis thaliana, UniProt Q9LTR2).
T1 construct: made in house; host or cells: Escherichia coli BL21 (DE3)
T1 sequence (Q9LTR2 119-381): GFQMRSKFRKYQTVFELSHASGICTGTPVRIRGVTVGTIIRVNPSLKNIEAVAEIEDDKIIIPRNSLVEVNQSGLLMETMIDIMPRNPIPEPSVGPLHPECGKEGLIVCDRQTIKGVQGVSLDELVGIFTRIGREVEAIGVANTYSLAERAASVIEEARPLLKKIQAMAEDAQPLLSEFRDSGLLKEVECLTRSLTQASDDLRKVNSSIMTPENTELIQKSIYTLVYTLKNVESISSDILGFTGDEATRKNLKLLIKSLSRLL
Nature of the assay: Liposome-association assay (mixed PA/PC liposomes), DsRed-TGD2C WT. To be noted: PC, PA/PC or PA liposomes, FIG. 3B. The class given is binding. On the procedure:
FIG. 2A: Analysis by liposome-association assay. A mixture of dioleoyl-PA and dioleoyl-PC was used where the weight percent of PA was varied from 0-100% (wt/wt), maintaining the total lipid invariant at 250 μg. 1 μg protein was used. P, protein recovered in the absence of lipids.
In this assay, purified recombinant proteins were incubated with liposomes for 30 min at 30° C. before centrifugation at 20,000 g for 10 min to pellet the liposomes. Proteins bound to the liposomes were found associated with the lipid pellet, whereas non-binding proteins remained in the supernatant. In an effort to determine the optimal concentration of PA required for high specificity binding, a PA/PC liposome mixture containing varying weight fractions of PA was prepared and incubated with DsRed-TGD2CWT or DsRed alone.
(§1) The liposome association assay was performed as previously reported. (31). Briefly, lipids (dioleoyl-phosphatidylcholine, DOPC or dioleoyl-PA, DOPA) were incubated in TBS (50 mM Tris-HCl, pH 7; 0.1 M NaCl) at 37° C. for an hour followed by vigorous vortexing for 5 min. The liposomes were precipitated at 20,000 g and washed twice with ice-cold TBS.
(§2) Liposomes (200 μg) were mixed with purified DsRed-TGD2 fusion protein and TBS to make a final 100 μL solution. The mixture was incubated at 30° C. for 30 min and washed twice with ice-cold TBS by centrifugation at 20,000 g at 4° C. The liposome pellet mixed with sample buffer was analyzed by SDS-PAGE (28). Immuno-detection of the His-tagged protein was accomplished using the above mentioned Penta-His antibody at 1:15,000 and the anti mouse antibody at 1:75,000 dilution.
(§3) The protein band was visualized by chemiluminescent detection kit from Sigma. The autoradiography film was scanned, distinct protein bands were quantified using computer software Multi Gauge V3.0 (Fujifilm USA, Valhalla, N.Y.) and resulted data were plotted and analyzed by OriginPro8 (Origin lab corporation, Northampton, Mass.).

Assay [2] addresses Arabidopsis TGD2, DsRed fusion of the 25-mer minimal domain (residues 201-225, SEQ ID NO:12), K221A (Arabidopsis thaliana, UniProt Q9LTR2, K221A). Nature of the assay: Liposome-association assay, point mutant K221A of the minimal domain. The format is binding. Conditions: PC liposomes; any of the constructs. How it is done: Some reports have identified that TGD2 PA-binding regions involve basic amino acids and/or tryptophan residues (10). […] Based on sequence similarity of TGD2 to its closely related homologs in plants and green algae, several charged and/or conserved amino acids were picked as potential interesting residues in the 25-mer minimal domain for possibly mediating interactions with PA. An alanine screen was then performed to evaluate these residues within a minimal PA binding region of TGD2 (i.e., for example, SEQ ID NO:12). Point mutations were generated in the 25-mer minimal domain and fused with DsRed to test PA binding by liposome-association assay using 100% PA liposomes.
The liposome association assay was performed as previously reported. (31). […]
Liposomes (200 μg) were mixed with purified DsRed-TGD2 fusion protein and TBS to make a final 100 μL solution. […] The liposome pellet mixed with sample buffer was analyzed by SDS-PAGE (28). […]
as §3

Assay [3] concerns the target T2, Arabidopsis TGD2, N-terminally truncated TGD2-dTMD-His (from Gly-119) (Arabidopsis thaliana, UniProt Q9LTR2).
T2 sequence (Q9LTR2 119-381): T1 sequence (Q9LTR2 119-381)
Nature of the assay: Liposome binding assay, TGD2-dTMD-His. Conditions: phosphatidylcholine liposomes with or without PA (6:4 wt/wt). How it is done: The liposome binding assay was performed as previously reported. Sano et al., (1998) J. Biol. Chem. 273:4783-4789. Lipids (i.e., for example, phosphatidylcholine or a mixture of phosphatidylcholine and PA at 6:4 wt/wt) were incubated in TBS (50 mM Tris/HCl, pH 7/0.1M NaCl) at 37° C. for 1 hour followed by vigorous vortexing for 5 min. The liposomes were precipitated at 20,000×g and washed twice with ice-cold TBS.
Liposomes (200 μg) were mixed with purified TGD2 protein lacking the TMD (10 μg/ml) and TBS to make 100 μl of solution. The mixture was incubated at 30° C. for 30 min and washed twice with ice-cold TBS by centrifugation at 20,000×g at 4° C. The liposome pellet mixed with sample buffer was analyzed by SDS/PAGE. Laemmli, U. K. (1970) Nature 227, 680-685. Immunodetection of the His-tagged protein was accomplished by using the above-mentioned Penta-His antibody at 1:6,000 and the anti-mouse antibody at 1:10,000 dilutions. The BCIP/NBT Kit from Bio-Rad was used for color detection.

Assay [4] concerns DsRed protein (Discosoma sp. red fluorescent protein). Briefly: Liposome-association assay, DsRed control. The format is binding. Conditions: FIG. 3B. On the procedure:
as §1, §2, §3

Arabidopsis TGD2, DsRed fusion of the 25-mer minimal domain (residues 201-225, SEQ ID NO:12), K221A, sequence (Q9LTR2 201-225 K221A): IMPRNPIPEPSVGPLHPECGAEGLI

Regarding `CCCCCCCC/C=C\CCCCCCCC(=O)OC[C@H](COP(=O)([O-])OCC[N+](C)(C)C)OC(=O)CCCCCCC/C=C\CCCCCCCC` [PC, phosphatidylcholine], the “binding to PA or PC” value in assay [1] is recorded as “no interaction”. For the same compound, the PC-liposome binding entry in assay [2] is reported as “No detectable PC-liposome binding”. In assay [3], the liposome binding entry was “did not bind”. Further, in assay [4], the “binding to PC or PA” value is on record as “does not display binding”.

These data come from patent US8629251B2, “Specific detection and quantification of phosphatidic acid using an Arabidopsis trigalactosyldiacylglycerol-4 (TGD4) protein” (Board of Trustees of Michigan State University, priority 2008, dated 2014).
